# Reference: publication PMC6272295, “In Vitro Neuroprotective Activities of Compounds from Angelica shikokiana Makino” (Molecules, 2015)
# Read-outs that look alike come from different tables or passages of the source.
# Experiments:
# [1] = molecular target: T1, AChE from Electrophorus electricus (Electrophorus electricus, UniProt O42275); assay: biochemical; conditions: Ellman's method; read-out: IC50 in the AChEI assay
# T1 construct: purchased Sigma (St. Louis, MO, USA)
# Method: AChEI activity was measured using Ellman’s method. AChE hydrolyzes the substrate ACTI into acetate and thiocholine. In a neutral and alkaline medium; thiocholine reacts with DTNB to give yellow colored 2-nitro-5-thiobenzoate, which can be detected spectrophotometrically at 405 nm. Briefly, in a 96-well plate, 25 µL of 15 mM ACTI, 125 µL of 3 mM DTNB in buffer B (50 mM Tris HCl, pH = 8, 0.1 M NaCl, 0.02 M MgCl2·6H2O), 50 µL of buffer A (50 mM Tris-HCl, PH 8, 0.1% BSA) and 25 µL of tested sample (dissolved in 25% DMSO) were mixed, and the absorbance was measured using a microplate reader (Biotek, Winooski, VT, USA) at 405 nm every 16 s ten times. Then, 25 µL of AChE (0.25 U/mL in buffer A) was added and the absorbance was measured ten times every 16 s. A solution of 25% DMSO was used as a negative control. Absorbance was plotted against time and enzyme activity was calculated from the slope of the line so obtained and expressed as a percentage compared to an assay using a buffer without any inhibitor. Fractions were tested at 400 µg/mL. To avoid any increase in absorbance due to the color of the compounds or spontaneous hydrolysis of the substrate, the absorbance before addition of the enzyme was subtracted from the absorbance after adding the enzyme.
# (§1) IC50 values of isolated compounds in AChEI and scavenging of hydroxyl radical assays were calculated using Probit Analysis (SPSS Version 16.0 for Windows, SPSS Inc., Chicago, IL, USA) for five different concentrations in three independent experiments. Cell viability was expressed as a percentage of MTT reduction, assuming that the viability of cells treated with 1% DMSO as a negative control was 100%. Figures were built in Microsoft Excel 2010. All values are the mean ± SD of three independent experiments. Data were analyzed for statistical significance using one-way ANOVA, followed by Dunnet’s test as a post-hoc test with GraphPad Prism 5.0 software for Windows (Inc., San Diego, CA, USA).
# neuro-2A cells [2] = assay: Protection against Aβ25-35-induced neurotoxicity (MTT); format: cell-based, Mouse; conditions: for Protection against Aβ25-35: summary Table 4; on Protection against Aβ25-35: key: +: Weak activity; ++: Strong activity
# Method: (§2) Neuro-2A cell line was maintained in Eagle’s Minimum Essential medium supplemented with 10% fetal bovine serum, 1% of 100× antibiotic—antimitotic agents (containing penicillin and streptomycin) in a humid atmosphere of 5% (v/v) CO2 and 95% (v/v) air at 37 °C. Neuro-2A cells were plated in 96-well cell culture plates at a density of 3 × 10^4 cells/well for H2O2 and intracellular ROS assays and 2.5 × 10^3 cells/well for the Aβ25-35-assay.
# (§3) Cell viability was determined by MTT reduction assay. Briefly, after treatment with isolated compounds, the media was replaced by fresh one after washing the cells with 100 µL PBS and 20 µL of MTT (5 mg/mL) was added to each well. After 4 h incubation at 37 °C, the state of cells was checked under microscope to confirm either cytotoxicity in H2O2 and Aβ25-35 wells or protection in positive controls and isolated compounds ones. The supernatants were aspirated carefully, and 150 µL of DMSO was added to each well to dissolve the dark blue formazan crystals. The absorbance was measured using a microplate reader at 570 nm.
# Similarly, the concentration of Aβ25-35 that decreased cell viability to about 50% was determined. […] So, the cells were incubated with different concentrations of the isolated compounds (6.25, 12.5, 25, 50 and 100 µM) and EGCG as a positive control for 3 h followed by Aβ25-35 treatment for 72 h.
# [3] = Scavenging of hydroxyl radical, 2-deoxyribose degradation assay; conditions: for % Inhibition of deoxyribose degradation, Non Site-Specific: at 300 µM (maximum solubility in phosphate buffer)
# Method: The inhibitory effect of bioactive compounds on deoxyribose degradation was determined by measuring the competition between deoxyribose and bioactive compounds for the hydroxyl radicals (^.OH) generated from the Fe^3+/ascorbate/EDTA/H2O2 system (referred to non-site-specific assay; the major activity measured is ^.OH scavenging) or an Fe^3+/ascorbate/H2O2 system (referred to as a site-specific assay; major activity measured is metal chelation). Both assays depend on the formation of a highly reactive hydroxyl radical, OH, by the interaction of iron ions with H2O2 through Fenton’s reaction. […] This assay was performed as previously described. Different concentrations of tested compounds were dissolved in 400 µL phosphate buffer (0.2 M, pH 7.4). Then, 50 µL of deoxyribose (60 mM), 50 µL of Na2EDTA (2 mM), 50 µL of FeCl3 (3.2 mM), 50 µL of H2O2 (60 mM) and 50 µL of ascorbic acid (2 mM) were added, and the total volume of the reaction mixture was adjusted to 1 mL with buffer. After water-bath incubation at 50 °C for 25 min, the reaction was terminated by 250 µL of trichloroacetic acid (10%, w/w). […] For site-specific hydroxyl-radical-scavenging activity, the reaction mixture was similar to the above method, except that EDTA was replaced by an equivalent volume of buffer.
# as §1, with “Figures were built in Microsoft Excel 2010.” left out
# Aβ25-35 = molecular target: T2, Aβ25-35 (Homo sapiens, UniProt P05067); assay: Thioflavin T assay of Aβ25-35 aggregation; format: biochemical; conditions: for effect on Th-T fluorescence (in words): 25-100 µM; for Decrease of ThT Fluorescence: summary Table 4; for decrease of Th-T fluorescence intensity: Aβ25-35 25 µM; on Decrease of ThT Fluorescence: key: +: Weak activity; ++: Strong activity
# T2 construct: Aβ25-35 (25 µM) freshly prepared in PBS; purchased Sigma (St. Louis, MO, USA)
# Method: Thioflavin T (ThT), abenzothiazole salt, is used to quantify misfolded protein aggregates and amyloid peptides. ThT is a non-fluorescent dye which, when it binds to amyloid rich aggregates, produces a fluorescent signal proportional to the quantity of amyloid aggregation. Aβ25-35 (25 µM) freshly prepared in PBS (50 mM, pH = 7.4) was incubated at 37 °C with or without different concentrations (100, 50, 25 µM) of isolated compounds at 37 °C and shaken at 300 rpm for 3 h. One hundred µL of each incubated sample was transferred to a 96-well plate, and five µM ThT was added. The ThT fluorescence was measured over 180 min at 10-min intervals at emission λ at 485 nm; and excitation λ at 442 nm using FlexStation 3 Microplate Reader (Molecular Devices, LLC, Sunnyvale, CA, USA), and data were managed by SoftMax Pro® 5.4.1 software. The samples were constantly shaken every 60 sec during the incubation. 1% DMSO and different concentrations of ECCG were taken as negative and positive controls, respectively. The area under the curve (AUC) was taken as indicative of fluorescence intensity. Fluorescence of samples and ThT without Aβ25-35 (sample blank) was detected and subtracted from the final AUC to prevent any interference.
# neuro-2A cells [4] = assay: Protection against H2O2-induced neurotoxicity (MTT); format: cell-based, Mouse
# Method: as §2, §3
# H2O2 interacts with metals in the medium, producing highly cytotoxic hydroxyl radicals that induce neurotoxicity. So, active compounds are those that can scavenge free radicals and increase the cell viability. This assay was performed as previously described with slight modifications. Briefly, the concentration of H2O2 that decreased cell viability to about 50% was determined as follows: cells were cultured in a 96-well plate and after 24 h were further incubated with different concentrations of H2O2 (50, 100, 150, 200 µM) freshly prepared from 30% stock solution. After 24 h, cell viability was determined using the MTT reduction method. H2O2 at a concentration of 150 µM had the desired cytotoxicity and was used for the next step.
# [5] = test system: intracellular ROS in Neuro-2A cells; assay: Scavenging of intracellular reactive oxygen species (Bes-H2O2-AC, DFF fluorescence); format: cell-based, Mouse; conditions: summary Table 4; further: key: +: Weak activity; ++: Strong activity
# Method: as §2
# This assay was performed as previously described with some modifications. Briefly, Neuro-2A cells were seeded in 96-well Clear Fluorescence Black Plate (number 655090, Greiner Bio-one, Tokyo, Japan). Cells were treated with three different concentrations (25, 50, 100 µM) of the samples. After 2 h incubation, cells were subjected to oxidative stress using 600 µM of H2O2 for 30 min. The nucleus was stained by Hoechst 33342 (Dojindo, Kumamoto, Japan), and the amount of difluorofluorescein (DFF) released from the reaction of H2O2 and BES-H2O2-Ac was taken as an indication of the amount of intracellular H2O2 and ROS. Images of each well were acquired using an IN Cell Analyzer 1000 (GE Healthcare, Buckinghamshire, UK) using 360-nm (Hoechst 33342) and 480-nm (BES-H2O2-Ac) excitation filters and monitored through 460-nm and 535-nm emission filters, respectively. Developer software was used to analyze the images of Hoechst 33342 and BES-H2O2-Ac staining, and the resulting data were then applied to Spotfire Decision Site Client 8.2 software for visualizing the results.
# T1 sequence (O42275 24-633): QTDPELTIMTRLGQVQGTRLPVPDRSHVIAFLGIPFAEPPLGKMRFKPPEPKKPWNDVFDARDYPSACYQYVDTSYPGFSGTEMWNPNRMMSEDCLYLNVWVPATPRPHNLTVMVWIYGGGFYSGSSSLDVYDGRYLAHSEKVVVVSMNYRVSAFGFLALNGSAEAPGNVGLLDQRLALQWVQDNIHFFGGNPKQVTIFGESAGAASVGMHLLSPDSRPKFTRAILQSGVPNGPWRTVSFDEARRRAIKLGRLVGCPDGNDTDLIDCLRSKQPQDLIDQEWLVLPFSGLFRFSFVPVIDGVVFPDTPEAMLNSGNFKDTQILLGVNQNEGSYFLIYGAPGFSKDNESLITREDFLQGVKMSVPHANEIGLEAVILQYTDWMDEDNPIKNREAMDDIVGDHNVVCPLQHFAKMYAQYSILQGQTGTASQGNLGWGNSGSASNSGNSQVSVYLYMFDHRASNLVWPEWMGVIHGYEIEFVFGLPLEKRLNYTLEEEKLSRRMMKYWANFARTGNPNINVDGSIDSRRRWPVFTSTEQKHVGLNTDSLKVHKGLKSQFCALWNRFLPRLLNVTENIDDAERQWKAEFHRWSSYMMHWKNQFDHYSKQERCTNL
Molecule,IC50 [1] [µM],Protection against Aβ25-35 (neuro-2A cells [2]),"% Inhibition of deoxyribose degradation, Non Site-Specific [3] [%]",effect on Th-T fluorescence (in words) (Aβ25-35),Decrease of ThT Fluorescence (Aβ25-35),neuroprotection against Aβ25-35 (in words) (neuro-2A cells [2]; at the highest concentration (100 µM)),"neuroprotection against H2O2-induced neurotoxicity (in words) (neuro-2A cells [4]; 6.25-100 µM, H2O2 150 µM)",Protection against H2O2 (neuro-2A cells [4]; summary Table 4),Intracellular ROS Scavenging [5],"IC50 ([3]; Fe3+/ascorbate/EDTA/H2O2 system, read-out: IC50 hydroxyl radical scavenging, Non Site-Specific) [µM]","IC50 ([3]; Fe3+/ascorbate/H2O2 system without EDTA, read-out: IC50 hydroxyl radical scavenging, Site-Specific) [µM]","IC50 ([3]; summary Table 4 (values of the non site-specific assay), read-out: Hydroxyl Radical Scavenging/IC50) [µM]",decrease of Th-T fluorescence intensity (Aβ25-35; 50 µM),decrease of Th-T fluorescence intensity (Aβ25-35; 100 µM)
"CC(=O)O[C@@H]1c2c(ccc3ccc(=O)oc23)OC(C)(C)[C@@H]1OC(=O)[C@@]1(C)O[C@H]1C [Isoepoxypteryxin (3), isoepoxypteryxin]",327 ± 3.4,++,6 ± 1.4,decreased Th-T fluorescence in a dose-dependent manner,++,–,–,–,–,–,–,–,–,–
"C/C=C(/C)C(=O)O[C@@H]1[C@H](OC(C)=O)c2c(ccc3ccc(=O)oc23)OC1(C)C [Isopteryxin (4), isopteryxin]",475.9 ± 1.5,+,10 ± 2.1,weak activity,+,significant neuroprotection (p < 0.05),–,–,–,–,–,–,–,–
kaempferol-3-O-rutinoside [Kaempferol-3-O-rutinoside (14)],–,++,–,decreased Th-T fluorescence in a dose-dependent manner,++,–,significant (p < 0.05) increase in cell viability at 100 µM,+,+,1030 ± 25.7,1540 ± 20.8,1030 ± 25.7,12% ±3.7%,33% ± 2.5%
